Among the data in ChEMBL document CHEMBL1136023, “Antifungal Sordarins. Part 4: synthesis and structure--activity relationships of 3',4'-fused alkyl-tetrahydrofuran derivatives” (2002) are MIC values, retold here.

As usually defined, the MIC is the smallest concentration in the dilution series that meets the test's criterion for growth inhibition. A higher MIC goes with a need for much substance.

Holding throughout (assay type): functional
One assay has as its system Candida tropicalis. Description: Minimal inhibitory effect against the Candida tropicalis (2808E).
The next assay deals with Candida parapsilosis. Description: Minimal inhibitory effect against the Candida parapsilosis (2372E). As to conditions: Lodderomyces parapsilosis.
A further assay concerns Nakaseomyces glabratus. The experiment in a line: Minimal inhibitory effect against the Candida glabrata (2375E).
The subject of assay [1] is Candida albicans. Description: Minimal inhibitory effect against the Candida albicans (4711E).
The subject of another assay is Cryptococcus neoformans. The experiment in a line: Minimal inhibitory effect against the Cryptococcus neoformans (2867E).
For assay [2], the system named is Candida albicans. Description: Minimal inhibitory effect against the Candida albicans (2005E).
A further assay concerns Kluyveromyces marxianus. Description: Minimal inhibitory effect against the Candida pseudotropicalis (2371E).
Another assay concerns Aspergillus flavus. Description: Minimal inhibitory effect against the Aspergillus flavus (C1150).

Values after ≈ are worked out from the molar mass of the structure shown.

Consider `OC(Cn1cncn1)(Cn1cncn1)c1ccc(F)cc1F` [FLUCONAZOLE], for which the minimum inhibitory concentration (MIC) in the assay on Candida tropicalis was determined as 2 µg/mL (≈ 6.53 µM); with Candida parapsilosis, 0.5 µg/mL (≈ 1.63 µM); with Nakaseomyces glabratus it was 4 µg/mL (≈ 13.1 µM); with Candida albicans [1] it was 0.12 µg/mL (≈ 0.392 µM).
`CC[C@H]1CO[C@H]2C1[C@H](O)[C@H](OCC13C[C@@H]4[C@H](C)CC[C@H]4C4(C=O)CC1C=C(C(C)C)C34C(=O)O)O[C@@H]2C` (single isomer, unassigned): the MIC against Cryptococcus neoformans was less than 0.25 µg/mL; against Candida albicans [2] it was 0.03 µg/mL (≈ 0.0581 µM); in the assay on Kluyveromyces marxianus, 0.06 µg/mL (≈ 0.116 µM); with Candida tropicalis it was 0.5 µg/mL (≈ 0.968 µM); against Candida parapsilosis, 125 µg/mL (≈ 242 µM); in the assay on Aspergillus flavus, greater than 125 µg/mL. For the same compound, the results for the MIC in the assay with Nakaseomyces glabratus and against Candida albicans [1] were 8 µg/mL (≈ 15.5 µM) and 0.12 µg/mL (≈ 0.232 µM), respectively.
As for `CC(C)C1=CC2CC3(C=O)[C@@H]4CC[C@@H](C)[C@H]4CC2(CO[C@H]2C[C@H]4[C@H](OC[C@H]4C(C)C)[C@@H](C)O2)C13C(=O)O` (stereo partly specified), the MIC in the assay on Cryptococcus neoformans is 4 µg/mL (≈ 7.77 µM); against Candida albicans [2], less than 0.001 µg/mL; in the assay with Kluyveromyces marxianus, less than 0.001 µg/mL; in the assay with Candida tropicalis, 2 µg/mL (≈ 3.89 µM); in the assay on Candida parapsilosis, greater than 125 µg/mL; with Aspergillus flavus it was greater than 125 µg/mL. For the same compound, the MIC against Nakaseomyces glabratus was 62 µg/mL (≈ 120 µM); in the assay on Candida albicans [1], less than 0.001 µg/mL.
In the case of `CC(C)C1=CC2CC3(C=O)[C@@H]4CC[C@@H](C)[C@H]4CC2(CO[C@H]2C[C@H]4[C@H](OC[C@H]4C)[C@@H](C)O2)C13C(=O)O` (stereo partly specified), the MIC with Cryptococcus neoformans is 4 µg/mL (≈ 8.22 µM); in the assay on Candida albicans [2], 0.001 µg/mL (≈ 0.00205 µM); against Kluyveromyces marxianus it was 0.001 µg/mL (≈ 0.00205 µM); against Candida tropicalis, 0.004 µg/mL (≈ 0.00822 µM); against Candida parapsilosis, greater than 125 µg/mL; against Aspergillus flavus, greater than 125 µg/mL. Moreover, the MIC in the assay on Nakaseomyces glabratus is 4 µg/mL (≈ 8.22 µM); in the assay on Candida albicans [1], less than 0.001 µg/mL.
Take `CC[C@@H]1CO[C@H]2C1[C@H](O)[C@H](OCC13C[C@@H]4[C@H](C)CC[C@H]4C4(C=O)CC1C=C(C(C)C)C34C(=O)O)O[C@@H]2C` (single isomer, unassigned): the MIC against Cryptococcus neoformans is less than 0.25 µg/mL; in the assay with Candida albicans [2], 0.015 µg/mL (≈ 0.029 µM); in the assay on Kluyveromyces marxianus, 0.06 µg/mL (≈ 0.116 µM); with Candida tropicalis, 0.25 µg/mL (≈ 0.484 µM); against Candida parapsilosis it was 125 µg/mL (≈ 242 µM); with Aspergillus flavus it was greater than 125 µg/mL. Besides, the MIC in the assay on Nakaseomyces glabratus came to 16 µg/mL (≈ 31 µM); with Candida albicans [1], 0.12 µg/mL (≈ 0.232 µM).
Consider `CC(C)C1=CC2CC3(C=O)[C@@H]4CC[C@@H](C)[C@H]4CC2(CO[C@H]2C[C@H]4[C@H](OC[C@@H]4C)[C@@H](C)O2)C13C(=O)O` (stereo partly specified), for which the MIC in the assay on Cryptococcus neoformans was 0.25 µg/mL (≈ 0.514 µM); against Candida albicans [2], less than 0.001 µg/mL; against Kluyveromyces marxianus it was 0.004 µg/mL (≈ 0.00822 µM); against Candida tropicalis, 0.008 µg/mL (≈ 0.0164 µM); in the assay with Candida parapsilosis, 2 µg/mL (≈ 4.11 µM); against Aspergillus flavus, 62 µg/mL (≈ 127 µM). For the same compound, the minimum inhibitory concentration (MIC) against Nakaseomyces glabratus is 0.5 µg/mL (≈ 1.03 µM); in the assay with Candida albicans [1], less than 0.001 µg/mL.
As to `CC(C)C1=CC2CC3(C=O)[C@@H]4CC[C@@H](C)[C@H]4CC2(CO[C@H]2C[C@H]4[C@H](OCC4(C)C)[C@@H](C)O2)C13C(=O)O` (stereo partly specified), the MIC was 4 µg/mL (≈ 7.99 µM) in the assay on Cryptococcus neoformans; less than 0.001 µg/mL with Candida albicans [2]; less than 0.001 µg/mL in the assay on Kluyveromyces marxianus; 0.06 µg/mL (≈ 0.12 µM) against Candida tropicalis; greater than 125 µg/mL with Candida parapsilosis; greater than 125 µg/mL in the assay on Aspergillus flavus. The values for the MIC against Nakaseomyces glabratus and in the assay with Candida albicans [1] were 8 µg/mL (≈ 16 µM) and less than 0.001 µg/mL, respectively.
With `CC(C)C1=CC2CC3(C=O)[C@@H]4CC[C@@H](C)[C@H]4CC2(CO[C@H]2C[C@@H]4OC[C@@H](C)[C@@H]4[C@@H](C)O2)C13C(=O)O` (stereo partly specified), the MIC against Cryptococcus neoformans was 1 µg/mL (≈ 2.05 µM); against Candida albicans [2], less than 0.001 µg/mL; in the assay with Kluyveromyces marxianus it was less than 0.001 µg/mL; with Candida tropicalis it was 0.008 µg/mL (≈ 0.0164 µM); in the assay on Candida parapsilosis it was greater than 125 µg/mL; against Aspergillus flavus it was greater than 125 µg/mL. Besides, the MIC against Nakaseomyces glabratus was 8 µg/mL (≈ 16.4 µM); in the assay with Candida albicans [1], less than 0.001 µg/mL.
With `CC(C)C1=CC2CC3(C=O)[C@@H]4CC[C@@H](C)[C@H]4CC2(CO[C@H]2C[C@@H]4OC(C)(C)O[C@@H]4[C@@H](C)O2)C13C(=O)O` (stereo partly specified), the MIC in the assay on Cryptococcus neoformans was 0.12 µg/mL (≈ 0.239 µM); against Candida albicans [2] it was less than 0.001 µg/mL; against Kluyveromyces marxianus, 0.004 µg/mL (≈ 0.00796 µM); in the assay on Candida tropicalis it was 0.12 µg/mL (≈ 0.239 µM); against Candida parapsilosis, greater than 125 µg/mL; with Aspergillus flavus it was greater than 125 µg/mL. Moreover, the MIC in the assay on Nakaseomyces glabratus amounted to 31 µg/mL (≈ 61.7 µM); with Candida albicans [1], 0.004 µg/mL (≈ 0.00796 µM).
As for `CC(C)C1=CC2CC3(C=O)[C@@H]4CC[C@@H](C)[C@H]4CC2(CO[C@H]2C[C@@H]4OC[C@H](C)[C@@H]4[C@@H](C)O2)C13C(=O)O` (stereo partly specified), the MIC is 0.5 µg/mL (≈ 1.03 µM) in the assay on Cryptococcus neoformans; 0.001 µg/mL (≈ 0.00205 µM) with Candida albicans [2]; less than 0.001 µg/mL in the assay on Kluyveromyces marxianus; 0.03 µg/mL (≈ 0.0616 µM) in the assay on Candida tropicalis; greater than 125 µg/mL in the assay with Candida parapsilosis; greater than 125 µg/mL against Aspergillus flavus. Moreover, the MIC amounted to 16 µg/mL (≈ 32.9 µM) in the assay on Nakaseomyces glabratus and 0.004 µg/mL (≈ 0.00822 µM) in the assay on Candida albicans [1].
Turning to `CC(C)C1=CC2CC3(C=O)[C@@H]4CC[C@@H](C)[C@H]4CC2(CO[C@@H]2O[C@H](C)[C@H]4OC[C@H](C)C4[C@@H]2O)C13C(=O)O` (single isomer, unassigned), the MIC is 1 µg/mL (≈ 1.99 µM) against Cryptococcus neoformans; 0.5 µg/mL (≈ 0.995 µM) against Candida albicans [2]; 1 µg/mL (≈ 1.99 µM) against Kluyveromyces marxianus; 2 µg/mL (≈ 3.98 µM) in the assay on Candida tropicalis; 125 µg/mL (≈ 249 µM) in the assay with Candida parapsilosis; greater than 125 µg/mL against Aspergillus flavus. The MIC against Nakaseomyces glabratus worked out at 31 µg/mL (≈ 61.7 µM); in the assay with Candida albicans [1] it was 1 µg/mL (≈ 1.99 µM).
On to `CC[C@H]1CO[C@H]2[C@@H]1C[C@H](OCC13C[C@@H]4[C@H](C)CC[C@H]4C4(C=O)CC1C=C(C(C)C)C34C(=O)O)O[C@@H]2C` (stereo partly specified), for which the MIC in the assay on Cryptococcus neoformans was less than 0.25 µg/mL; against Candida albicans [2], less than 0.001 µg/mL; in the assay with Kluyveromyces marxianus, less than 0.001 µg/mL; against Candida tropicalis, less than 0.001 µg/mL; in the assay on Candida parapsilosis it was 4 µg/mL (≈ 7.99 µM); in the assay with Aspergillus flavus, 62 µg/mL (≈ 124 µM). The MIC with Nakaseomyces glabratus is 0.5 µg/mL (≈ 0.999 µM); against Candida albicans [1], less than 0.001 µg/mL.
Regarding `CC(C)C1=CC2CC3(C=O)[C@@H]4CC[C@@H](C)[C@H]4CC2(CO[C@@H]2O[C@H](C)[C@H]4OC[C@@H](C)C4[C@@H]2O)C13C(=O)O` (single isomer, unassigned), the MIC was 31 µg/mL (≈ 61.7 µM) against Cryptococcus neoformans; 0.008 µg/mL (≈ 0.0159 µM) in the assay on Candida albicans [2]; 0.25 µg/mL (≈ 0.497 µM) in the assay with Kluyveromyces marxianus; 0.5 µg/mL (≈ 0.995 µM) against Candida tropicalis; 125 µg/mL (≈ 249 µM) in the assay on Candida parapsilosis; greater than 125 µg/mL with Aspergillus flavus. The MIC worked out at 62 µg/mL (≈ 123 µM) with Nakaseomyces glabratus and 0.25 µg/mL (≈ 0.497 µM) against Candida albicans [1].
Regarding `CC[C@@H]1CO[C@H]2[C@@H]1C[C@H](OCC13C[C@@H]4[C@H](C)CC[C@H]4C4(C=O)CC1C=C(C(C)C)C34C(=O)O)O[C@@H]2C` (stereo partly specified), the MIC against Cryptococcus neoformans is 1 µg/mL (≈ 2 µM); against Candida albicans [2], less than 0.001 µg/mL; in the assay with Kluyveromyces marxianus it was less than 0.001 µg/mL; in the assay on Candida tropicalis, less than 0.001 µg/mL; with Candida parapsilosis, greater than 125 µg/mL; with Aspergillus flavus it was greater than 125 µg/mL. The MIC in the assay with Nakaseomyces glabratus was 4 µg/mL (≈ 7.99 µM); against Candida albicans [1], less than 0.001 µg/mL.
In the case of `CC(C)C1=CC2CC3(C=O)[C@@H]4CC[C@@H](C)[C@H]4CC2(CO[C@H]2C[C@H]4[C@H](OC[C@@H]4C(C)C)[C@@H](C)O2)C13C(=O)O` (stereo partly specified), the minimum inhibitory concentration (MIC) in the assay on Cryptococcus neoformans was 0.25 µg/mL (≈ 0.486 µM); against Candida albicans [2], less than 0.001 µg/mL; against Kluyveromyces marxianus, less than 0.001 µg/mL; in the assay with Candida tropicalis, 0.004 µg/mL (≈ 0.00777 µM); against Candida parapsilosis, 16 µg/mL (≈ 31.1 µM); in the assay on Aspergillus flavus, greater than 125 µg/mL. Besides, the results for the minimal inhibitory concentration (MIC) with Nakaseomyces glabratus and against Candida albicans [1] were 2 µg/mL (≈ 3.89 µM) and less than 0.001 µg/mL, respectively.
